The series can be described thus: Determination of plasma exposure of test compounds in rats (LC/MS of plasma after oral dosing). Type of series: in vivo, rat (male F-344). Conditions: for AUC / Cmax / Tmax: male, F-344, rat, rats, oral administration of a 30 mg/kg dose; for AUC: n = 3, read-out: AUC (area under the curve); for Cmax: n = 3, read-out: Cmax (maximum concentration of test compound); for Tmax: n = 3, read-out: tmax (time at which maximum concentration resulted); for concentration at 0.5 h / concentration at 1 h / concentration at 2 h / concentration at 6 h: rat, male F-344 rats, 30 mg/kg oral by gavage, suspension, n = 3. On the procedure:
General Procedure for Determination of Plasma Exposure of Test Compounds in Rats
Each compound was administered as a suspension in a vehicle consisting of 5% ethanol, 95% of a mixture of 0.5% each Polysorbate 80/sodium carboxymethylcellulose in water. Three male F-344 rats were dosed orally at 30 mg/kg by gavage and blood collected by orbital venapuncture under isoflurane anesthesia at 0.5, 1, and 2 hours after dosing into sodium heparinized containers. The final 6 hour timepoint was collected by cardiac puncture into sodium heparinized containers. Plasma was collected after brief centrifugation and frozen at −70° C. until assay. Plasma samples were assayed by LC/MS using standards prepared by spiking plasma with the compound of interest.

Molecules are shown by their SMILES.

As usually defined, the AUC is the area under the concentration-time curve, a measure of exposure. As for `CC(CNS(=O)(=O)C(C)C)c1ccc(NC(=O)c2ccc(F)cc2F)cc1` (centres unmarked) [Compound A, N-[4-(1-methyl-2-{[(methylethyl)sulfonyl]amino}ethyl)phenyl](2,4-difluorophenyl)carboxamide], the AUC was determined as 1440 ± 227 ng·h/mL, the Cmax is 473 ng/mL, the Tmax came out at 30 min and the concentration at 0.5 h was found to be 473 ± 100 ng/mL. The same compound yielded a concentration at 1 h of 333 ± 53 ng/mL, a concentration at 2 h of 329 ± 62 ng/mL and a concentration at 6 h of 67 ± 17 ng/mL.
For `CC(C)S(=O)(=O)NC[C@H](C)c1ccc(NC(=O)c2cc(F)cc(F)c2)cc1` [Compound B, N-[4-((1R)-1-methyl-2-{[(methylethyl)sulfonyl]amino}ethyl)phenyl](3,5-difluorophenyl)carboxamide], the AUC was 5596 ± 14 ng·h/mL, the Cmax came out at 1490 ng/mL, the Tmax stood at 30 min and the concentration at 0.5 h worked out at 1491 ± 12 ng/mL. Also, the concentration at 1 h was 1170 ± 134 ng/mL, the concentration at 2 h worked out at 1040 ± 62 ng/mL and the concentration at 6 h worked out at 693 ± 136 ng/mL.

For the origin of these results see patent US6803484B2, “Sulfonamide derivatives” (Eli Lilly and Company, priority 2000, dated 2004).
